From PubChem BioAssay (NCI)
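Method: 48-hour compound exposure of cells in 96-well plates, five concentrations, linear interpolation of endpoints. TGI: concentration producing complete growth inhibition.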

Key:
Assay in all cases: NCI tumour cell line growth inhibition, 48 h
[1] = test system: SK-OV-3 ovarian
[2] = test system: SF-295 CNS
[3] = test system: MDA-MB-231 breast
[4] = test system: HL-60(TB) leukemia
[5] = test system: NCI-H460 lung
[6] = test system: SN12C renal
[7] = test system: SF-539 CNS
[8] = test system: HT29 colon
[9] = test system: PC-3 prostate
[10] = test system: OVCAR-8 ovarian
[11] = test system: SK-MEL-28 melanoma
[12] = test system: K-562 leukemia
[13] = test system: IGROV1 ovarian
[14] = test system: OVCAR-3 ovarian
[15] = test system: DU-145 prostate
[16] = test system: KM12 colon
[17] = test system: SF-268 CNS
[18] = test system: A549 NSCLC
[19] = test system: HOP-92 NSCLC

Structure (SMILES) | TGI [1] | TGI [2] | TGI [3] | TGI [4] | TGI [5] | TGI [6] | TGI [7] | TGI [8] | TGI [9] | TGI [10] | TGI [11] | TGI [12] | TGI [13] | TGI [14] | TGI [15] | TGI [16] | TGI [17] | TGI [18] | TGI [19]
Clc1cccc(Cl)c1C1SCc2nc3ncccc3n21 (stereo unspecified) | > 100 µM | > 100 µM | > 100 µM | > 100 µM | > 100 µM | > 100 µM | > 100 µM | > 100 µM | > 100 µM | > 100 µM | > 100 µM | > 100 µM | > 100 µM | > 100 µM | > 100 µM | > 100 µM | > 100 µM | > 100 µM | –
COC1=CC(=O)C2[C@H]3Cc4ccccc4[C@H]3C2(C)C1=O (stereo partly specified) | > 100 µM | > 100 µM | – | – | > 100 µM | – | > 100 µM | > 100 µM | – | > 100 µM | > 100 µM | > 100 µM | > 100 µM | > 100 µM | – | > 100 µM | > 100 µM | > 100 µM | > 100 µM
O=C1CSc2ccncc2N1 | – | > 100 µM | – | > 100 µM | > 100 µM | > 100 µM | > 100 µM | > 100 µM | – | > 100 µM | > 100 µM | > 100 µM | > 100 µM | > 100 µM | – | – | > 100 µM | > 100 µM | –
COC(=O)c1c/c(=N\NC(=O)CC(=O)Nc2ccc(C)cc2)c2ccccc2o1 | > 100 µM | > 100 µM | – | > 100 µM | > 100 µM | > 100 µM | > 100 µM | > 100 µM | – | > 100 µM | > 100 µM | > 100 µM | > 100 µM | > 100 µM | – | > 100 µM | > 100 µM | > 100 µM | > 100 µM
C=CCn1c(=S)sc2c(=O)[nH]cnc21 | > 100 µM | > 100 µM | – | > 100 µM | > 100 µM | > 100 µM | > 100 µM | > 100 µM | – | > 100 µM | – | > 100 µM | > 100 µM | > 100 µM | – | > 100 µM | > 100 µM | > 100 µM | > 100 µM
COC(=O)[C@]1(C)CCC[C@]2(C)C3CC4OOC3(C=C4C(C)C)CCC21 (stereo partly specified) | 34.4 µM | 31.3 µM | – | 4.15 µM | 25.7 µM | 31.7 µM | 30.7 µM | 29.4 µM | – | 41.8 µM | – | 33.7 µM | 35.7 µM | 76.6 µM | – | 32.4 µM | 30.1 µM | 33.9 µM | –
Cn1c(C2CC(C)(C)c3c2c2ccccc2n3C)cc2ccccc21 (stereo unspecified) | > 304 µM | > 304 µM | – | > 304 µM | > 304 µM | > 304 µM | > 304 µM | > 304 µM | – | > 304 µM | > 304 µM | > 304 µM | > 304 µM | > 304 µM | – | > 304 µM | > 304 µM | > 304 µM | > 304 µM
Clc1ccc(N=Cc2cc3cc(Br)ccc3nc2Cl)cc1 | – | – | – | 46.4 µM | > 50 µM | > 50 µM | > 50 µM | > 50 µM | > 50 µM | > 50 µM | > 50 µM | > 50 µM | > 50 µM | – | > 50 µM | > 50 µM | > 50 µM | – | > 50 µM
CC1(C)OC([C@H](O)CO)C([C@H]2NCCS2)O1 (stereo partly specified) | > 100 µM | > 100 µM | > 100 µM | > 100 µM | > 100 µM | – | – | > 100 µM | > 100 µM | > 100 µM | > 100 µM | > 100 µM | > 100 µM | > 100 µM | > 100 µM | > 100 µM | > 100 µM | > 100 µM | > 100 µM
CC1(C)CC[C@]2(C(=O)O)CC[C@]3(C)C(=CC[C@@H]4[C@@]5(C)CC[C@@H]6OC(C)(C)OC[C@@]6(C)[C@@H]5CC[C@]43C)[C@H]2C1 | 91.8 µM | 27.6 µM | 12.9 µM | 32.9 µM | 20 µM | 13 µM | 33.5 µM | 18.8 µM | 19.1 µM | > 100 µM | 29.2 µM | 40.6 µM | 30.2 µM | 18.5 µM | 31.9 µM | – | 36.5 µM | – | –
CCCN1CN(C(C(=O)N[C@@H]2C(=O)N3C(C(=O)O)=C(C)CSC23)c2ccccc2)CSC1=S (stereo partly specified) | > 100 µM | > 100 µM | – | > 100 µM | > 100 µM | > 100 µM | > 100 µM | > 100 µM | – | > 100 µM | > 100 µM | > 100 µM | > 100 µM | > 100 µM | – | > 100 µM | > 100 µM | > 100 µM | > 100 µM
N=c1c2ccccc2nc2oc3ccc(Cl)cc3n12 | 46.2 µM | 35.6 µM | > 100 µM | – | > 100 µM | 61.5 µM | 32 µM | > 100 µM | > 100 µM | 69.1 µM | > 100 µM | > 100 µM | 69.8 µM | 31.4 µM | – | > 100 µM | > 100 µM | 97 µM | –
N.N.N.N.O=S(=O)([O-])[O-].[Co+3].[OH3+].[OH3+] | > 100 µM | > 100 µM | – | > 100 µM | > 100 µM | > 100 µM | > 100 µM | > 100 µM | – | > 100 µM | > 100 µM | > 100 µM | > 100 µM | > 100 µM | – | > 100 µM | > 100 µM | > 100 µM | > 100 µM
